Results as given in patent US10821100B2, “Triazolone compounds as mPGES-1 inhibitors” (Glenmark Pharmaceuticals S.A., priority 2012, dated 2020).

Biological target: T1, Recombinant human mPGES-1 (Homo sapiens, UniProt O14684)
T1 construct: made in house; host or cells: CHO cells (crude microsomal fractions)
T1 sequence (O14684 1-152): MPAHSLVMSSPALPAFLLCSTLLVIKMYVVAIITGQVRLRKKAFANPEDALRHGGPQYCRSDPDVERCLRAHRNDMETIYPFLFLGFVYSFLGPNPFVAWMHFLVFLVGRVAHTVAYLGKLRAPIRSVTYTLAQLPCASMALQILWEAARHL
Experiment: In-vitro screening of mPGES-1 inhibitors (inhibition of PGE2 formation from PGH2, HTRF detection)
Type: biochemical
Conditions: mPGES-1 enzyme; for inhibition at 1 µM: 1 μM test compound, read-out: Percentage inhibition at 1 μM; for inhibition at 10 µM: 10 μM test compound, read-out: Percentage inhibition at 10 μM; for IC50: class symbols
In short: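 PGH2-to-PGE2 isomerization run for 1 min with 15 μM PGH2 after 10 min compound preincubation with microsomal enzyme (40–60 μg/mL) and 2.5 mM GSH, pH buffer 0.1 M potassium phosphate with EDTA. Stannous chloride quench, HTRF PGE2 readout, IC50 fitted against uninhibited reaction.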

Structure (SMILES): COc1ccc(-n2nc(-c3c(F)cccc3Cl)[nH]c2=O)cc1C(=O)NC1(c2ccccc2C(F)(F)F)CC1 [Example-21, 5-[3-(2-Chloro-6-fluorophenyl)-5-oxo-4,5-dihydro-1H-1,2,4-triazol-1-yl]-2-methoxy-N-{1-[2-(trifluoromethyl)phenyl]cyclopropyl}benzamide]
- inhibition at 1 µM (crude microsomal fractions): 76.1%
- inhibition at 10 µM (crude microsomal fractions): 91.8%

Structure (SMILES): COc1cc(-n2nc(-c3c(F)cccc3Cl)[nH]c2=O)ccc1C(=O)Nc1cc(C(F)(F)F)ccc1F [Example-36, 4-(3-(2-Chloro-6-fluorophenyl)-5-oxo-4,5-dihydro-1H-1,2,4-triazol-1-yl)-N-(2-fluoro-5-(trifluoromethyl)phenyl)-2-methoxybenzamide]
- inhibition at 1 µM (crude microsomal fractions): 97.3%
- inhibition at 10 µM (crude microsomal fractions): 98.9%
- IC50: < 50 nM

Structure (SMILES): COc1cc(Cl)c(-c2nn(-c3ccc(C(F)(F)F)cc3)c(=O)[nH]2)cc1CNC(=O)C(C)(C)C [Example-127, N-(4-Chloro-5-(1-(4-(trifluoromethyl)phenyl)-4,5-dihydro-5-oxo-1H-1,2,4-triazol-3-yl)-2-methoxybenzyl)pivalamide]
- inhibition at 1 µM (crude microsomal fractions): 32.4%
- inhibition at 10 µM (crude microsomal fractions): 58.5%

Structure (SMILES): CC(C)(C)C(=O)NCc1ccc(Cl)c(-c2nn(-c3ccc(C(F)(F)F)cc3)c(=O)[nH]2)c1F [Example-84, N-(4-Chloro-2-fluoro-3-(5-oxo-1-(4-(trifluoromethyl)phenyl)-4,5-dihydro-1H-1,2,4-triazol-3-yl)benzyl)pivalamide]
- inhibition at 1 µM (crude microsomal fractions): 98.8%
- inhibition at 10 µM (crude microsomal fractions): 99.5%
- IC50: < 50 nM

Structure (SMILES): COc1cc(-n2nc(-c3c(F)cccc3Cl)[nH]c2=O)ccc1-c1nc(-c2ccc(Cl)cc2)no1 [Example-40, 3-(2-Chloro-6-fluorophenyl)-1-(4-(3-(4-chlorophenyl)-1,2,4-oxadiazol-5-yl)-3-methoxyphenyl)-1H-1,2,4-triazol-5(4H)-one]
- inhibition at 1 µM (crude microsomal fractions): 89%
- inhibition at 10 µM (crude microsomal fractions): 90.7%
- IC50: < 50 nM

Structure (SMILES): CC(C)(C)C(=O)NCc1cc(-c2nn(-c3ccc(Cl)cc3)c(=O)[nH]2)c(Cl)cc1F [Example-126, N-(4-Chloro-5-(1-(4-chlorophenyl)-4,5-dihydro-5-oxo-1H-1,2,4-triazol-3-yl)-2-fluorobenzyl)pivalamide]
- inhibition at 1 µM (crude microsomal fractions): 100%
- inhibition at 10 µM (crude microsomal fractions): 99.3%
- IC50: < 50 nM

Structure (SMILES): O=C(NCc1ccc(Cl)c(-n2nc(-c3ccc(C#Cc4cccc(Cl)c4F)cc3F)[nH]c2=O)c1)C1CC1 [Example-81, N-(4-Chloro-3-(3-(4-((3-chloro-2-fluorophenyl)ethynyl)-2-fluorophenyl)-5-oxo-4,5-dihydro-1H-1,2,4-triazol-1-yl)benzyl)cyclopropanecarboxamide]
- inhibition at 1 µM (crude microsomal fractions): 99.8%
- inhibition at 10 µM (crude microsomal fractions): 98%
- IC50: < 50 nM

Structure (SMILES): Cc1ccc(CNC(=O)C(C)(C)CF)c(C)c1-c1nn(-c2ccc(C#CC3CC3)cc2)c(=O)[nH]1 [Example-169, N-(3-(1-(4-(2-Cyclopropylethynyl)phenyl)-4,5-dihydro-5-oxo-1H-1,2,4-triazol-3-yl)-2,4-dimethylbenzyl)-3-fluoro-2,2-dimethylpropanamide]
- inhibition at 1 µM (crude microsomal fractions): 95.5%
- inhibition at 10 µM (crude microsomal fractions): 99.2%
- IC50: > 100 nM

Structure (SMILES): O=C(NCc1ccc(Cl)c(-c2nn(-c3ccc(C(F)(F)F)cc3)c(=O)[nH]2)c1)C1CCCC1 [Example-185, N-(4-Chloro-3-(5-oxo-1-(4-(trifluoromethyl)phenyl)-4,5-dihydro-1H-1,2,4-triazol-3-yl)benzyl)cyclopentanecarboxamide]
- inhibition at 1 µM (crude microsomal fractions): 96.1%
- inhibition at 10 µM (crude microsomal fractions): 98.3%
- IC50: < 50 nM

Structure (SMILES): O=C(NCc1ccc(Cl)c(-c2nn(-c3ccc(C(F)(F)F)cc3)c(=O)[nH]2)c1)C1CCC1 [Example-184, N-(4-Chloro-3-(5-oxo-1-(4-(trifluoromethyl)phenyl)-4,5-dihydro-1H-1,2,4-triazol-3-yl)benzyl)cyclobutanecarboxamide]
- inhibition at 1 µM (crude microsomal fractions): 98.6%
- inhibition at 10 µM (crude microsomal fractions): 94.3%
- IC50: < 50 nM

Structure (SMILES): COc1cc(-n2nc(-c3c(F)cccc3Cl)[nH]c2=O)ccc1C(=O)NC1(c2ccccc2C(F)(F)F)CC1 [Example-26, 4-(3-(2-Chloro-6-fluorophenyl)-5-oxo-4,5-dihydro-1H-1,2,4-triazol-1-yl)-2-methoxy-N-(1-(2-(trifluoromethyl)phenyl)cyclopropyl)benzamide]
- inhibition at 1 µM (crude microsomal fractions): 80.6%
- inhibition at 10 µM (crude microsomal fractions): 88.1%
- IC50: > 100 nM

Structure (SMILES): COc1cc(-c2nn(-c3c(Cl)cccc3Cl)c(=O)[nH]2)ccc1C(=O)Nc1cccc(C(F)(F)F)c1 [Example-76, 4-(1-(2,6-Dichlorophenyl)-5-oxo-4,5-dihydro-1H-1,2,4-triazol-3-yl)-2-methoxy-N-(3-(trifluoromethyl)phenyl)benzamide]
- inhibition at 1 µM (crude microsomal fractions): 95.6%
- inhibition at 10 µM (crude microsomal fractions): 95.4%
- IC50: < 50 nM

Structure (SMILES): O=C(NCc1ccc(Cl)c(-c2nn(-c3ccc(C(F)(F)F)cc3)c(=O)[nH]2)c1)c1ccno1 [Example-105, N-(4-Chloro-3-(5-oxo-1-(4-(trifluoromethyl)phenyl)-4,5-dihydro-H-1,2,4-triazol-3-yl)benzyl)isoxazole-5-carboxamide]
- inhibition at 1 µM (crude microsomal fractions): 73.9%
- inhibition at 10 µM (crude microsomal fractions): 96%
- IC50: > 100 nM

Structure (SMILES): O=C(NCC1CC1)c1ccc(-n2nc(-c3c(F)cccc3Cl)[nH]c2=O)cc1 [Example-17, 4-[3-(2-Chloro-6-fluorophenyl)-5-oxo-4,5-dihydro-1H-1,2,4-triazol-1-yl]-N-(cyclopropylmethyl)benzamide]
- inhibition at 1 µM (crude microsomal fractions): 2.52%
- inhibition at 10 µM (crude microsomal fractions): 44.1%

Structure (SMILES): O=c1[nH]c(-c2c(F)cccc2Cl)nn1-c1ccc(-c2cccc(OC(F)(F)F)c2)cc1 [Example-8, 5-(2-Chloro-6-fluorophenyl)-2-[3′-(trifluoromethoxy)biphenyl-4-yl]-2,4-dihydro-3H-1,2,4-triazol-3-one]
- inhibition at 1 µM (crude microsomal fractions): 84.9%
- inhibition at 10 µM (crude microsomal fractions): 87.2%
- IC50: 50 to 100 nM

Structure (SMILES): COc1cc(-c2nn(-c3c(Cl)cccc3Cl)c(=O)[nH]2)ccc1C#Cc1ccc(C(F)(F)F)cc1Cl [Example-75, 3-(4-((2-Chloro-4-(trifluoromethyl)phenyl)ethynyl)-3-methoxyphenyl)-1-(2,6-dichlorophenyl)-1H-1,2,4-triazol-5(4H)-one]
- inhibition at 1 µM (crude microsomal fractions): 99.1%
- inhibition at 10 µM (crude microsomal fractions): 98.3%
- IC50: < 50 nM

Structure (SMILES): COc1cc(-c2nn(-c3c(Cl)cccc3Cl)c(=O)[nH]2)ccc1C#Cc1cccc(Cl)c1F [Example-74]
- inhibition at 1 µM (crude microsomal fractions): 93.2%
- inhibition at 10 µM (crude microsomal fractions): 98.7%
- IC50: 50 to 100 nM

Structure (SMILES): O=C(NCc1ccc(Cl)c(-n2nc(-c3ccc(C(F)(F)F)cc3F)[nH]c2=O)c1)C1CC1 [Example-92, N-(4-Chloro-3-(3-(2-fluoro-4-(trifluoromethyl)phenyl)-5-oxo-4,5-dihydro-1H-1,2,4-triazol-1-yl)benzyl)cyclopropanecarboxamide]
- inhibition at 1 µM (crude microsomal fractions): 76%
- inhibition at 10 µM (crude microsomal fractions): 99.4%
- IC50: > 100 nM

Structure (SMILES): Cc1ccc(Cl)cc1NC(=O)c1ccc(-n2nc(-c3c(F)cccc3Cl)[nH]c2=O)cc1 [Example-37, N-(5-Chloro-2-methylphenyl)-4-(3-(2-chloro-6-fluorophenyl)-5-oxo-4,5-dihydro-1H-1,2,4-triazol-1-yl)benzamide]
- inhibition at 1 µM (crude microsomal fractions): 51%
- inhibition at 10 µM (crude microsomal fractions): 94.3%

Structure (SMILES): COc1cc(-n2nc(-c3c(F)cccc3Cl)[nH]c2=O)ccc1C(=O)Nc1nc2ccc(F)cc2s1 [Example-45, 4-(3-(2-Chloro-6-fluorophenyl)-5-oxo-4,5-dihydro-1H-1,2,4-triazol-1-yl)-N-(6-fluorobenzo[d]thiazol-2-yl)-2-methoxybenzamide]
- inhibition at 1 µM (crude microsomal fractions): 81.7%
- inhibition at 10 µM (crude microsomal fractions): 90.1%
- IC50: < 50 nM

Structure (SMILES): CC(C)(C)C(=O)NCc1cc(-c2nn(-c3ccc(F)c(C(F)(F)F)c3)c(=O)[nH]2)c(Cl)cc1F [Example-128, N-(4-Chloro-2-fluoro-5-(1-(4-fluoro-3-(trifluoromethyl)phenyl)-4,5-dihydro-5-oxo-1H-1,2,4-triazol-3-yl)benzyl)pivalamide]
- inhibition at 1 µM (crude microsomal fractions): 91.8%
- inhibition at 10 µM (crude microsomal fractions): 89.3%
- IC50: < 50 nM

Structure (SMILES): COc1cc(-c2nn(-c3c(Cl)cccc3Cl)c(=O)[nH]2)ccc1C(=O)Nc1ccc(C)cc1Cl [Example-179, N-(2-Chloro-4-methylphenyl)-4-(1-(2,6-dichlorophenyl)-4,5-dihydro-5-oxo-1H-1,2,4-triazol-3-yl)-2-methoxybenzamide]
- inhibition at 1 µM (crude microsomal fractions): 50.6%
- inhibition at 10 µM (crude microsomal fractions): 95.2%

Structure (SMILES): COc1cc(-n2nc(-c3c(F)cccc3Cl)[nH]c2=O)ccc1C(=O)Nc1nnc(C(F)(F)F)s1 [Example-48, 4-(3-(2-Chloro-6-fluorophenyl)-5-oxo-4,5-dihydro-1H-1,2,4-triazol-1-yl)-2-methoxy-N-(5-(trifluoromethyl)-1,3,4-thiadiazol-2-yl)benzamide]
- inhibition at 1 µM (crude microsomal fractions): 98.3%
- inhibition at 10 µM (crude microsomal fractions): 100%
- IC50: < 50 nM

Structure (SMILES): O=C(Nc1cccc(C(F)(F)F)c1)c1ccc(-n2nc(-c3cc(CNC(=O)C4CC4)ccc3Cl)[nH]c2=O)cc1 [Example-72, 4-(3-(2-Chloro-5-(cyclopropanecarboxamidomethyl)phenyl)-5-oxo-4,5-dihydro-1H-1,2,4-triazol-1-yl)-N-(3-(trifluoromethyl)phenyl)benzamide]
- inhibition at 1 µM (crude microsomal fractions): 99.2%
- inhibition at 3 µM (3 μM test compound, crude microsomal fractions, read-out: Percentage inhibition at 3 μM): 99%
- IC50: < 50 nM

Structure (SMILES): COc1cc(-n2nc(-c3c(Cl)cccc3Cl)[nH]c2=O)ccc1C(=O)Nc1cc(C(F)(F)F)ccc1F [Example-44, 4-(3-(2,6-Dichlorophenyl)-5-oxo-4,5-dihydro-1H-1,2,4-triazol-1-yl)-N-(2-fluoro-5-(trifluoromethyl)phenyl)-2-methoxybenzamide]
- inhibition at 1 µM (crude microsomal fractions): 97.4%
- inhibition at 10 µM (crude microsomal fractions): 99%
- IC50: < 50 nM
